We go through 14 compounds from paper PMC6009886, “Methanethiosulfonate derivatives as ligands of the STAT3-SH2 domain” (Journal of Enzyme Inhibition and Medicinal Chemistry, 2017).

Series [1] concerns T1, Grb2 (Growth factor receptor-bound protein 2).
T1 construct: First, 75 nM of each SH2-containing protein was incubated with the test compound for 15 min
As to the kind of experiment: AlphaScreen-based assay, selectivity versus Grb2. The settings on record: a = mean of two experiments. Format: binding. The procedure:
(§1) STAT3 inhibitory activity of the described compounds was tested by the AlphaScreen-based assay to evaluate the potential inhibition of the interaction between STAT3-SH2 domain and pTyr-containing peptides according to the previously reported procedure. For the most interesting compounds, selectivity tests versus STAT1 and Grb2 (Growth factor receptor-bound protein 2) were performed. AlphaScreen is a bead-based nonradioactive assay system for detecting biomolecular interactions in a microtiter plate format. Binding of biological partners brings donor and acceptor beads into close proximity and as result, a luminescent signal between 520 and 620 nm is produced. The AlphaScreen-based assays were typically performed in a final reaction volume of 25 μl of the assay buffer containing 10 mM HEPES–NaOH (pH 7.4), 50 mM NaCl, 1 mM EDTA (pH 8.0), 0.1% NP-40, and 10 ng/μl BSA in a 96-well microtiter plate at 25 °C. Phospho-Tyr (pTyr) peptide probes used in this study were 5-carboxyfluorescein (FITC)-GpYLPQTV for STAT3, FITC-GpYDKPHVL for STAT1, and FITC-PSpYVNVQN for Grb2. First, 75 nM of each SH2-containing protein was incubated with the test compound for 15 min. Each protein sample was then incubated for 90 min with 50 nM of its corresponding FITC-pTyr peptide, and mixed with streptavidin-coated donor beads and anti-FITC acceptor beads simultaneously before detection at 570 nm using EnVisonXcite (Perkin Elmer, Waltham, MA).
(In general: In Alpha technology, singlet oxygen from a donor bead excites a nearby acceptor bead.)

The next series concerns the target T2, STAT3-SH2 domain (Homo sapiens, UniProt P40763).
T2 construct: First, 75 nM of each SH2-containing protein was incubated with the test compound for 15 min
In words: AlphaScreen-based assay, STAT3-SH2 domain / pTyr peptide binding. The settings on record: for inhibition at 30 µM: a = mean of two experiments; for IC50: read-out: STAT3 IC50 (μM) ± SD.

The target in the next series is T3, STAT1 (Homo sapiens, UniProt P42224).
T3 construct: First, 75 nM of each SH2-containing protein was incubated with the test compound for 15 min
T3 sequence (P42224 1-750): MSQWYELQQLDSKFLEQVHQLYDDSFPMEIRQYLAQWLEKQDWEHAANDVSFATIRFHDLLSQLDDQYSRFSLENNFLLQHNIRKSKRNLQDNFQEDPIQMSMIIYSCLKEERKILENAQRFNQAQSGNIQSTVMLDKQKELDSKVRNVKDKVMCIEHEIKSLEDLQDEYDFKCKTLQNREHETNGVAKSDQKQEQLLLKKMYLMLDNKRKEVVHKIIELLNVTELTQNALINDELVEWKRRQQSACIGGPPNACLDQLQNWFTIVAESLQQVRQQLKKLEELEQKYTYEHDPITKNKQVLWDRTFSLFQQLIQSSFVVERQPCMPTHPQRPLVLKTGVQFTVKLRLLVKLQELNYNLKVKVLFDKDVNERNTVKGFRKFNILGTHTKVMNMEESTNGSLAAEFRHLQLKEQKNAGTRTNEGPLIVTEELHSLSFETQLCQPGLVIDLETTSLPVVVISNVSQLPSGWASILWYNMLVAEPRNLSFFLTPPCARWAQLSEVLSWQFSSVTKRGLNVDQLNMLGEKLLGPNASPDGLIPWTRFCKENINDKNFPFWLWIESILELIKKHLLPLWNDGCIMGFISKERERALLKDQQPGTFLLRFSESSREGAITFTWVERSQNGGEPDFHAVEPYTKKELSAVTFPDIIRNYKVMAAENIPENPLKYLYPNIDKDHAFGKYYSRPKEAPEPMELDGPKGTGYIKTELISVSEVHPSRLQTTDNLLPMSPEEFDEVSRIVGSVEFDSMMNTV
As to the kind of experiment: AlphaScreen-based assay, selectivity versus STAT1. The series is classed as binding. The settings on record: for IC50: read-out: STAT1 IC50 (μM) ± SD. The procedure: as §1

Another series deals with HCT-116 cell line. In words: MTT assay, cytotoxicity on HCT-116 cell line. The series is classed as cell-based, human. The settings on record: for antiproliferative / cytotoxic activity on HCT-116 cell line (in words): 48 h treatment; for IC50: Homo sapiens, HCT-116, 48 h treatment, NA: not active up to 200 μM, read-out: HCT-116 IC50 (μM) ± SD. The procedure:
The colorectal cancer HCT116 cells were cultured in McCoy’s media supplemented with penicillin (10,000 U/ml), streptomycin (10 mg/ml), nonessential amino acid, and 10% fetal calf serum (FCS). Cells were then seeded in 48 well plates and, after 24 h, they were incubated with different concentration of newly synthesized compounds dissolved in DMSO.
After 48 h of treatment, medium was removed from each well, and cells were incubated with fresh medium, containing 10% (v/v) of MTT (3-(4,5-dimethyl-2-thiazolyl)-2,5-diphenyl-2H-tetrazolium bromide) reagent. MTT, by interacting with vital cells mitochondria, is converted to formazan, with the development of visible purple crystals. After dissolving these crystals with isopropanol-HCl, the quantification of the conversion of MTT to formazan is determined through spectrophotometer analysis (595 nM), as previously described.

Another series has as its system STAT3 homodimers. Set-up: method as in PMID 17463090. The note with it: read-out: IC50, blocked the formation of STAT3 homodimers; cited from earlier work.

Structures can show the parent of a compound that is named as a salt. Marks after values point to notes of the source that are not given here.

T2 sequence (P40763 whole entry, the tested form may be a part): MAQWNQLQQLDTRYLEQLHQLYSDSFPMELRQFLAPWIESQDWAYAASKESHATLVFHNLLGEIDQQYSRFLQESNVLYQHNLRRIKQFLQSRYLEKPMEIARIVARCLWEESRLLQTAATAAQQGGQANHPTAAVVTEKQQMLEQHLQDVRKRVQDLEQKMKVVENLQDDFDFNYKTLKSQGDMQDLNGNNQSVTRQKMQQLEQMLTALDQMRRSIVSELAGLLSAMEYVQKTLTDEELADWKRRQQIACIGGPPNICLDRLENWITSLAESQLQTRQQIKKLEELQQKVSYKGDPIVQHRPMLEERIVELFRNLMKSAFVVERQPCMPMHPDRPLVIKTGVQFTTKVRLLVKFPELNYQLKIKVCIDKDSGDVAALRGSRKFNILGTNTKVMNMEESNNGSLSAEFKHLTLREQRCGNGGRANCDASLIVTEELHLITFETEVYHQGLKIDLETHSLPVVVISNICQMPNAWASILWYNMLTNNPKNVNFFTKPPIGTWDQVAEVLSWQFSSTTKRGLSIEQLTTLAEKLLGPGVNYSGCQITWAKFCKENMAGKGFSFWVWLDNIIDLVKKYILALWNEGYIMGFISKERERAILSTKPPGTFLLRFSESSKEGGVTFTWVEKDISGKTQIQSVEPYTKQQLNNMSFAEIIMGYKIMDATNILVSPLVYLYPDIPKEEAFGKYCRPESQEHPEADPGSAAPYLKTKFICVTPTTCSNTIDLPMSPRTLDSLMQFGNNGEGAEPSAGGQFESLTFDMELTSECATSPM

On to `CC1=C(CC(=O)OCCSS(C)(=O)=O)c2cc(F)ccc2/C1=C\c1ccc([S+](C)[O-])cc1` (centres unmarked) [Compound 3, (Z)-5-fluoro-2-methyl-1-[[4-(methylsulfinyl)phenyl]methylene]-1H-indene-3-acetic acid 2-methanesulfonylsulfanylethyl ester], for which, in series [1], the “Grb2 % Inhibition 3 μM” value is recorded as 74.6^a %. Moreover, on STAT3-SH2 domain, the inhibition at 3 µM is 105 ± 8.2%, the inhibition at 30 µM stood at 102% and the IC50 came out at 0.5 ± 0.1 µM. Further, at STAT1, the inhibition at 3 µM came to 46.7 ± 1.1% and the IC50 was more than 3 µM. Moreover, in the series on HCT-116 cell line, the “antiproliferative / cytotoxic activity on HCT-116 cell line (in words)” value (shortened to “antiproliferative / cytotoxic activity”) was “moderate antiproliferative activity” and the IC50 turned out to be 104 ± 10.9 µM.
Consider `CS(=O)(=O)SCCO` [Compound 9, S-(2-hydroxyethyl) methanesulfonothioate, reference compound], for which, on STAT3-SH2 domain, the IC50 was more than 30 µM.
As for `CS(=O)(=O)CSC(=O)c1ccc(N)cc1O` [Compound 8, S-((methylsulfonyl)methyl) 4-amino-2-hydroxybenzothioate], at STAT3-SH2 domain, the inhibition at 30 µM came to 41.8 ± 0.9% and the concentration for half-maximal inhibition (IC50) is more than 30 µM. For the same compound, the “inhibition / binding of STAT3-SH2 domain (in words)” value on STAT3-SH2 domain (highest concentration tested 30 μM) is “moderately inhibited”. Besides, in the series on HCT-116 cell line, the “antiproliferative / cytotoxic activity” value was “good cytotoxic activity” and the IC50 worked out at 26.3 ± 11.6 µM.
`CC(=O)Oc1ccccc1C(=O)OCCSS(C)(=O)=O` [Compound 4, 2-Acetoxybenzoic acid 2-methanesulfonylsulfanyl-ethyl ester]: in series [1], the “Grb2 % Inhibition 3 μM” value is on record as 15.9^a %. Further, on STAT3-SH2 domain, the inhibition at 3 µM was 93.5 ± 2.6%, the inhibition at 30 µM was 100 ± 0.1% and the IC50 turned out to be 1.4 ± 0.1 µM. In addition, at STAT1, the inhibition at 3 µM came out at 44.2 ± 0.8%, the inhibition at 30 µM was found to be 99.8 ± 0.4% and the IC50 was found to be 3.6 µM. In the series with HCT-116 cell line, the “antiproliferative / cytotoxic activity” value was “moderate antiproliferative activity” and the 50% inhibitory concentration (IC50) came out at 87.9 ± 11.4 µM.
As to `CS(=O)(=O)SCCOC(=O)Cc1ccccc1Nc1c(Cl)cccc1Cl` [Compound 5, 2-((methylsulfonyl)thio)ethyl 2-(2-((2,6-dichlorophenyl)amino)phenyl)acetate], the “Grb2 % Inhibition 3 μM” value in series [1] is 77.8^a %. Also, on STAT3-SH2 domain, the inhibition at 3 µM was determined as 110 ± 2.2%, the inhibition at 30 µM is 102% and the half-inhibitory concentration (IC50) was determined as 0.5 ± 0.2 µM. Further, at STAT1, the inhibition at 3 µM was determined as 35.4 ± 2.1% and the IC50 is more than 3 µM. Also, in the series with HCT-116 cell line, the “antiproliferative / cytotoxic activity” value is given as “inefficacious at concentration up to 100–200 μM”.
`Cc1ccc(S(=O)(=O)SCC(=O)Nc2ccc(C(=O)O)c(O)c2)cc1` [Compound 6, 2-Hydroxy-4-(2-(tosylthio)acetamido)benzoic acid]: on STAT3-SH2 domain, the inhibition at 3 µM came to 46 ± 0.8%, the inhibition at 30 µM turned out to be 58.4 ± 1.1% and the IC50 was determined as 4.9 ± 0.4 µM. On STAT1, the inhibition at 3 µM was found to be 18 ± 0.2%, the inhibition at 30 µM is 39.6 ± 0.8% and the IC50 was more than 30 µM. In the series with HCT-116 cell line, the IC50 is more than 200 µM.
In the case of `CC(=O)Oc1ccccc1C(=O)O` [ASA, acetyl salicylic acid, reference compound], the inhibition at 30 µM at STAT3-SH2 domain worked out at 3.8 ± 1.9%; against STAT1, 6.3 ± 1.7%. The 50% inhibitory concentration (IC50) on STAT3-SH2 domain and on STAT1 was more than 30 µM each time.
Take `CCCC(CCC)C(=O)NCCSS(C)(=O)=O` [Compound 2, S-(2-(2-propylpentanamido)ethyl) methanesulfonothioate]: the “Grb2 % Inhibition 3 μM” value in series [1] is listed as −23.3^a %. At STAT3-SH2 domain, the inhibition at 3 µM stood at 67.2 ± 11%, the inhibition at 30 µM turned out to be 106% and the 50% inhibitory concentration (IC50) is 1.4 ± 0.1 µM. For the same compound, at STAT1, the inhibition at 3 µM stood at 1.9 ± 2.2% and the concentration for half-maximal inhibition (IC50) was more than 3 µM. Also, the “antiproliferative / cytotoxic activity” value in the series with HCT-116 cell line is given as “inefficacious at concentration up to 100–200 μM”.
As for `CC1=C(CC(=O)O)c2cc(F)ccc2/C1=C\c1ccc([S+](C)[O-])cc1` (centres unmarked) [Sulindac, sulindac, reference compound], on STAT3-SH2 domain, the inhibition at 30 µM is 4.2 ± 3.2% and the IC50 was more than 30 µM. Further, at STAT1, the inhibition at 30 µM was 4.9 ± 2% and the IC50 is more than 30 µM.
Consider `CCCC(CCC)C(=O)O` [VA, valproic acid, reference compound], for which the inhibition at 30 µM at STAT3-SH2 domain was 0.2 ± 3.2%; against STAT1 it was 2.7 ± 3%. Also, the IC50 at STAT3-SH2 domain and on STAT1 was more than 30 µM throughout.
As to `Cc1ccc(S(=O)(=O)OCC(=O)Nc2ccc(C(=O)O)c(O)c2)cc1` [Compound S3I-301, reference compound], the inhibition at 30 µM on STAT3-SH2 domain is 7.2 ± 1.7%. For the same compound, the results for the IC50 in the series with STAT3 homodimers and in the series on HCT-116 cell line were 86 µM and 39.5 ± 7.7 µM, respectively.
In the case of `O=C(O)Cc1ccccc1Nc1c(Cl)cccc1Cl` [Diclofenac sodium salt, reference compound], the inhibition at 30 µM at STAT3-SH2 domain is 4.5 ± 2.4%; at STAT1, 6.5 ± 2.1%. Moreover, the 50% inhibitory concentration (IC50) on STAT3-SH2 domain and on STAT1 was more than 30 µM each time.
Turning to `CS(=O)(=O)SCCN` [Compound 10, S-(2-aminoethyl) methanesulfonothioate, reference compound], in series [1], the “Grb2 % Inhibition 3 μM” value is given as 12.3^a %. The IC50 on STAT3-SH2 domain and at STAT1 was more than 3 µM each time.
For the compound `CCCC(CCC)C(=O)OCCSS(C)(=O)=O` [Compound 1, 2-((Methylsulfonyl)thio)ethyl 2-propylpentanoate], the “Grb2 % Inhibition 3 μM” value in series [1] is 76.0^a %. Besides, at STAT3-SH2 domain, the inhibition at 3 µM was 101 ± 2.2%, the inhibition at 30 µM is 102% and the IC50 is 0.7 ± 0.1 µM. Further, at STAT1, the inhibition at 3 µM turned out to be 44.9 ± 10.5% and the IC50 was more than 3 µM. In the series on HCT-116 cell line, the “antiproliferative / cytotoxic activity” value is reported as “moderate antiproliferative activity” and the IC50 turned out to be 136 ± 2.2 µM.

For orientation: inhibition means the drop in the measured response relative to a control, in per cent. The term IC50 denotes the concentration at which inhibition is half-maximal.
